# Where a name gives a salt, the structure may show the parent alone. Read-outs that look alike come from different tables or passages of the source.
# Columns and labels:
# Assay in all cases: biochemical
# MMP-1 = target: T1, MMP-1 (Homo sapiens, UniProt P03956); conditions: read-out: MMP-1 IC50
# T1 construct: made in house; host or cells: transfected HT-1080 cells (provided by Dr. Harold Welgus, Washington University)
# T1 sequence (P03956 100-469): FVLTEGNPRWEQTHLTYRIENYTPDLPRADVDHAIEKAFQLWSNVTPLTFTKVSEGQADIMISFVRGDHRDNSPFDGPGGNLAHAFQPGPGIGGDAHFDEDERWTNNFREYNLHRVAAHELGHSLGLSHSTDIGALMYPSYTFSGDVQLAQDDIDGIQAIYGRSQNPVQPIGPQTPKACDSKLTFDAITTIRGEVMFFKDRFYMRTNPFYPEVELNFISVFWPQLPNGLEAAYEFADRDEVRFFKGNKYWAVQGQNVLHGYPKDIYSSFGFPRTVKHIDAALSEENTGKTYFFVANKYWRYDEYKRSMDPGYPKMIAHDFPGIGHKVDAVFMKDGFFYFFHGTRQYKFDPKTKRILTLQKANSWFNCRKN
# In short: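 APMA- or trypsin-activated human MMPs (MMP-1 from transfected HT-1080 cells, MMP-2 from transfected cells) preincubated with inhibitor in 1% DMSO at room temperature, then 4 μM MCA-Pro-Leu-Gly-Leu-Dpa-Ala-Arg-NH2 added in Tris/NaCl/CaCl2 buffer pH 7.5. IC50 from fluorescence reduction versus inhibitor concentration.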
# MMP-13 = target: T2, MMP-13 (Homo sapiens, UniProt P45452)
# T2 construct: made in house; host or cells: baculovirus / insect cells
# In short: (§1)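 APMA- or trypsin-activated enzymes were preincubated with inhibitor for 5 min at room temperature, then the fluorogenic substrate MCA-Pro-Leu-Gly-Leu-Dpa-Ala-Arg-NH2 was added to a final 4 μM.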
# MMP-2 = target: T3, MMP-2 (Homo sapiens, UniProt P08253)
# T3 construct: made in house; provided by Dr. Gregory Goldberg, Washington University
# T3 sequence (P08253 110-660): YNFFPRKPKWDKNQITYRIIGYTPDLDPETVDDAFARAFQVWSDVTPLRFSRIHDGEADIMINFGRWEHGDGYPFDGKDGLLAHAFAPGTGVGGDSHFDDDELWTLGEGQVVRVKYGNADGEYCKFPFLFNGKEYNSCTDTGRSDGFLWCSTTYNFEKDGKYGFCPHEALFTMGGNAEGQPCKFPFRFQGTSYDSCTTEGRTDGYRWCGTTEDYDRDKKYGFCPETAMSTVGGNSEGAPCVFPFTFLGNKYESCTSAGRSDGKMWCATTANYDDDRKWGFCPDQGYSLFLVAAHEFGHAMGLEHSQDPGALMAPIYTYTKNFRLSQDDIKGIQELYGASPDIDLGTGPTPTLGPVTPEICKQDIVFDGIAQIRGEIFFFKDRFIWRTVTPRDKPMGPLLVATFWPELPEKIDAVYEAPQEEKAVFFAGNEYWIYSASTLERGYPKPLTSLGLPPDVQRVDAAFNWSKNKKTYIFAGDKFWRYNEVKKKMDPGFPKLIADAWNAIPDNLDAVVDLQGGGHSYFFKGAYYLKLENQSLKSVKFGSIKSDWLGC
# In short: as §1
# [1] = recombinant human MMP-1, MCA peptide substrate 4 μM, pH 7.5, room temperature
# [2] = recombinant human MMP-13, MCA peptide substrate 4 μM, pH 7.5, room temperature, read-out: MMP-13 IC50
# [3] = recombinant human MMP-2, MCA peptide substrate 4 μM, pH 7.5, room temperature, read-out: MMP-2 IC50
SMILES,IC50 (MMP-1; [1]),IC50 (MMP-13; [2]),IC50 (MMP-2; [3]),"IC50 (MMP-13; MMP-13 IC50 (nM), recombinant human MMP-13, MCA peptide substrate 4 μM, pH 7.5, room temperature)",IC50 (MMP-1),IC50 (MMP-13; read-out: MMP-13 IC50),IC50 (MMP-2; MMP-2 IC50 (nM)),IC50 (MMP-2; read-out: MMP-2 IC50)
O=C(NO)C1(S(=O)(=O)c2ccc(N3CCC(Oc4ccccc4O)CC3)cc2)CCOCC1 [Example 835],> 10000 nM,6 nM,20 nM,,,,,
O=C(NO)C1(S(=O)(=O)c2ccc(N3CCc4ccccc4C3)cc2)CCN(C2CC2)CC1 [Example 455],> 10000 nM,6.3 nM,26.8 nM,,,,,
O=C(NO)C1(S(=O)(=O)c2ccc(N3CCC(n4cnc5ccccc54)CC3)cc2)CCOCC1 [Example 475],> 10000 nM,27.1 nM,500 nM,,,,,
O=C(NO)C1(S(=O)(=O)c2ccc(N3CCC(OCc4cccc(C(F)(F)F)c4)CC3)cc2)CCN(C2CC2)CC1 [Example 402],> 10000 nM,15.8 nM,340 nM,,,,,
O=C(c1ccco1)N1CCC(C(=O)NO)(S(=O)(=O)c2ccc(N3CCC(OCc4ccc(F)cc4)CC3)cc2)CC1 [Example 424],> 10000 nM,5.5 nM,80 nM,,,,,
O=C(NO)C1(S(=O)(=O)c2ccc(N3CCC(Sc4ccccc4)CC3)cc2)CCN(C2CC2)CC1 [Example 389],> 10000 nM,1.7 nM,16.1 nM,,,,,
O=C(NO)C1(S(=O)(=O)c2ccc(N3CCC(c4ccc(Cl)cc4)CC3)cc2)CCOCC1 [Example 541],> 10000 nM,,2 nM,0.7 nM,,,,
COc1ccccc1C1CCN(c2ccc(S(=O)(=O)C3(C(=O)NO)CCOCC3)cc2)CC1 [Example 79],,,,,> 10000 nM,20 nM,2000 nM,
O=C(c1ccc(OC(F)(F)F)cc1)N1CCN(c2ccc(S(=O)(=O)C3(C(=O)NO)CCOCC3)cc2)CC1 [Example 595],> 10000 nM,270 nM,425 nM,,,,,
O=C(c1ccco1)N1CCC(C(=O)NO)(S(=O)(=O)c2ccc(N3CCC(OCc4ccc(F)cc4C(F)(F)F)CC3)cc2)CC1 [Example 434],> 10000 nM,190 nM,3700 nM,,,,,
O=C(c1ccco1)N1CCC(C(=O)NO)(S(=O)(=O)c2ccc(N3CCC(OCc4ccc(Cl)cc4)CC3)cc2)CC1 [Example 432],> 10000 nM,13.9 nM,100 nM,,,,,
CC1CC(C)CN(C(=O)C2CCN(c3ccc(S(=O)(=O)C4(C(=O)NO)CCN(C(=O)CN5CCN(CCOCCO)CC5)CC4)cc3)CC2)C1 (stereo not drawn) [Example 299],> 10000 nM,30.6 nM,9000 nM,,,,,
CCc1cccc(C(=O)C2CCN(c3ccc(S(=O)(=O)C4(C(=O)NO)CCOCC4)cc3)CC2)c1 [Example 732],> 10000 nM,3.1 nM,590 nM,,,,,
O=C(c1ccc(F)cc1)C1CCN(c2ccc(S(=O)(=O)C3(C(=O)NO)CCS(=O)(=O)CC3)cc2)CC1 [Example 161],,,,,> 10000 nM,32.6 nM,,900 nM
O=C(Nc1ccc(C(F)(F)F)cc1)N1CCC(C(=O)NO)(S(=O)(=O)c2ccc(Oc3ccc(OC(F)(F)F)cc3)cc2)CC1 [Example 366],> 10000 nM,13 nM,2.5 nM,,,,,
COc1cccc(NC(=O)C2CCN(c3ccc(S(=O)(=O)C4(C(=O)NO)CCOCC4)cc3)CC2)c1 [Example 72],> 10000 nM,13 nM,800 nM,,,,,
O=C(c1ccccc1)N1CCN(c2ccc(S(=O)(=O)C3(C(=O)NO)CCOCC3)cc2)CC1 [Example 593],> 10000 nM,420 nM,650 nM,,,,,

# The next lines start with results.
IC50 (MMP-1; [1]),IC50 (MMP-13; [2]),IC50 (MMP-2; [3]),SMILES,"IC50 (MMP-13; MMP-13 IC50 (nM), recombinant human MMP-13, MCA peptide substrate 4 μM, pH 7.5, room temperature)",IC50 (MMP-1),IC50 (MMP-13; read-out: MMP-13 IC50),IC50 (MMP-2; MMP-2 IC50 (nM)),IC50 (MMP-2; read-out: MMP-2 IC50)
> 10000 nM,4 nM,200 nM,CCOCc1ccc(COC2CCN(c3ccc(S(=O)(=O)C4(C(=O)NO)CCOCC4)cc3)CC2)cc1 [Example 472],,,,,
> 10000 nM,12.2 nM,1000 nM,O=C(NCc1ccccc1)N1CC(Oc2ccc(S(=O)(=O)C3(C(=O)NO)CCOCC3)cc2)C1 [Example 658],,,,,
> 10000 nM,4.5 nM,66.4 nM,O=C(NO)C1(S(=O)(=O)c2ccc(N3CCC(OCc4ccc(F)cc4F)CC3)cc2)CCOCC1 [Example 558],,,,,
4500 nM,0.2 nM,< 0.1 nM,"O=C(NO)C1(S(=O)(=O)c2ccc(Oc3ccc(OC(F)(F)F)cc3)cc2)CCN(CCCN2CCOCC2)CC1 [Example 264, N-Hydroxy-1-[3-(4-morpholinyl)propyl]-4-[[4-[4-(trifluoromethoxy)phenoxy]phenyl]sulfonyl]-4-piperidinecarboxamide Dihydrochloride]",,,,,
> 10000 nM,50 nM,130 nM,O=C(NO)C1(S(=O)(=O)c2ccc(N3CCCCC3)cc2)CCOCC1 [Example 209],,,,,
> 10000 nM,4.2 nM,15.8 nM,CCOc1cccc(OC2CCN(c3ccc(S(=O)(=O)C4(C(=O)NO)CCOCC4)cc3)CC2)c1 [Example 640],,,,,
> 10000 nM,2.7 nM,0.2 nM,O=C(CCCCNCCO)N1CCC(C(=O)NO)(S(=O)(=O)c2ccc(Oc3ccc(C(F)(F)F)cc3)cc2)CC1 [Example 337],,,,,
> 10000 nM,18.1 nM,325 nM,COc1cc(COC2CCN(c3ccc(S(=O)(=O)C4(C(=O)NO)CCOCC4)cc3)CC2)cc(OC)c1 [Example 178],,,,,
> 10000 nM,3.8 nM,160 nM,Cc1ccc(COC2CCN(c3ccc(S(=O)(=O)C4(C(=O)NO)CCOCC4)cc3)CC2)cc1 [Example 172],,,,,
5200 nM,70 nM,55 nM,O=C(c1ccco1)N1CCN(c2ccc(S(=O)(=O)C3(C(=O)NO)CCOCC3)cc2)CC1 [Example 537],,,,,
> 10000 nM,4 nM,0.3 nM,COCCN(CCCCC(=O)N1CCC(C(=O)NO)(S(=O)(=O)c2ccc(Oc3ccc(C(F)(F)F)cc3)cc2)CC1)CCOC [Example 342],,,,,
> 10000 nM,1.5 nM,0.9 nM,"COCCN1CCC(C(=O)NO)(S(=O)(=O)c2ccc(Oc3ccc(-n4cncn4)cc3)cc2)CC1 [Example 262, N-Hydroxy-1-(2-methoxyethyl)-4-[[4-[4-(1H-1,2,4-triazol-1-yl)phenoxy]phenyl]sulfonyl]-4-piperidinecarboxamide Trihydrochloride]",,,,,
> 10000 nM,61 nM,175 nM,COc1ccccc1COC1CCC(Oc2ccc(S(=O)(=O)C3(C(=O)NO)CCOCC3)cc2)C1 (stereo not drawn) [Example 740],,,,,
> 10000 nM,4.7 nM,136 nM,CCOc1ccc(NC(=O)OC2CCN(c3ccc(S(=O)(=O)C4(C(=O)NO)CCOCC4)cc3)CC2)cc1 [Example 190],,,,,
> 10000 nM,18 nM,3700 nM,CN(CC1CC1)C(=O)C1CCN(c2ccc(S(=O)(=O)C3(C(=O)NO)CCSCC3)cc2)CC1 [Example 154],,,,,
> 10000 nM,28.8 nM,420 nM,O=C(NO)C1(S(=O)(=O)c2ccc(OC3CCC(OCc4cccc(OC(F)(F)F)c4)C3)cc2)CCOCC1 (stereo not drawn) [Example 714],,,,,
> 10000 nM,12.1 nM,4 nM,O=C(CNCc1ccccn1)N1CCC(C(=O)NO)(S(=O)(=O)c2ccc(Oc3ccc(C(F)(F)F)cc3)cc2)CC1 [Example 320],,,,,
> 10000 nM,> 10000 nM,> 10000 nM,O=C(NO)C1(S(=O)(=O)c2ccc(N3CC[C@@H](COCc4ccc(F)cc4)C3)cc2)CCOCC1 [Example 526],,,,,
> 10000 nM,40 nM,800 nM,O=C(NO)C1(S(=O)(=O)c2ccc(N3CCC(Oc4ccc([N+](=O)[O-])c(F)c4)CC3)cc2)CCOCC1 [Example 548],,,,,
> 10000 nM,240 nM,100 nM,O=C(NO)C1(S(=O)(=O)c2ccc(N3CCc4ccccc4C3)cc2)CCOCC1 [Example 484],,,,,
> 10000 nM,5 nM,41.8 nM,C/C=C/CC(=O)C1CCN(c2ccc(S(=O)(=O)C3(C(=O)NO)CCOCC3)cc2)CC1 [Example 761],,,,,
